Where a name gives a salt, the structure may show the parent alone.
How the values were obtained:
Proteus vulgaris M-8243 = assay: synergistic effects with β-lactam antibiotics, paper disk inhibition zone
Proteus rettgeri GN 624 = assay: as above
[1] = test system: Citrobacter freundii GN 346; assay: as above
[2] = test system: Staphylococcus aureus 209P; assay: antibacterial activity, agar dilution method; type: cell-based; details: Heart Infusion Agar, read-out: Minimum Inhibitory Concentration
[3] = test system: Staphylococcus aureus Smith; assay: antibacterial activity, agar dilution method; type: cell-based; details: Heart Infusion Agar, read-out: Minimum Inhibitory Concentration
[4] = test system: Bacillus subtilis ATCC 6633; assay: antibacterial activity, agar dilution method; type: cell-based; details: ATCC6633, Heart Infusion Agar, read-out: Minimum Inhibitory Concentration
Escherichia coli No. 29 = assay: antibacterial activity, agar dilution method; type: cell-based; details: Heart Infusion Agar, read-out: Minimum Inhibitory Concentration
From the text: In this determination, Heart Infusion Agar (produced by Eiken Chemical Co., Ltd.) was used as the medium.

[5] = test system: Escherichia coli NIHJ JC-2; assay: antibacterial activity, agar dilution method; type: cell-based; details: NIHJJC2, Heart Infusion Agar, read-out: Minimum Inhibitory Concentration
[6] = test system: Klebsiella pneumoniae PCI 602; assay: antibacterial activity, agar dilution method; type: cell-based; details: PCI602, Heart Infusion Agar, read-out: Minimum Inhibitory Concentration
Proteus mirabilis GN 310 = assay: antibacterial activity, agar dilution method; type: cell-based; details: GN310, Heart Infusion Agar, read-out: Minimum Inhibitory Concentration
[7] = test system: Proteus vulgaris GN 76/C-1; assay: antibacterial activity, agar dilution method; type: cell-based; details: GN76, Heart Infusion Agar, read-out: Minimum Inhibitory Concentration
Proteus morganii Kono = assay: antibacterial activity, agar dilution method; type: cell-based; details: Morganella morganii, Heart Infusion Agar, read-out: Minimum Inhibitory Concentration
[8] = test system: Shigella dysenteriae Shigae; assay: microbe, parasite or virus in culture; type: cell-based; details: read-out: Minimum Inhibitory Concentration
[9] = test system: Citrobacter freundii GN 346; assay: antibacterial activity, agar dilution method; type: cell-based; details: GN346, Heart Infusion Agar, read-out: Minimum Inhibitory Concentration
[10] = test system: Serratia marcescens No. 1; assay: antibacterial activity, agar dilution method; type: cell-based; details: Heart Infusion Agar, read-out: Minimum Inhibitory Concentration
[11] = test system: Pseudomonas aeruginosa E-2; assay: antibacterial activity, agar dilution method; type: cell-based; details: E2, Heart Infusion Agar, read-out: Minimum Inhibitory Concentration
toxicity (LD50) = details: in vivo, mice or rat
Experimental: […]. LD50 values by oral administration, intramuscular injection and intravenous injection were all higher than 2,000 mg/kg.

solubility = type: physicochemical
Penicillinase = assay: β-lactamase inhibitory activity, modified Sargent's method; type: biochemical; details: at 10 ^.parallel.g/ml; substrate Penicilline G Potassium Salt
From the text: The Sargent's method was partly modified as follows
Reagent A: Enzyme solution properly diluted with 0.1 M phosphate buffer (pH 7.0) as to show 0.6 optical density of consumption of iodine at 490 nm when measured under the undermentioned conditions.
Reagent B: 1.3% Penicillin G potassium salt aqueous solution for penicillinase assay. 1.3% Cefalotin sodium salt aqueous solution for cephalosporinase assay (β-lactamase of Proteus vulgaris M-8243 or Citrobacter freundii GN 346).
Reagent C: 0.1 M phosphate buffer (pH 7.0)
Reagent D: Iodine acetate buffer solution which is prepared by adding 5 ml of stock iodine solution* to 95 ml of pH 4.0 acetate buffer (80 g of anhydrous sodium acetate adjusted to pH 4.0 with acetic acid and made up to 2 liters with distilled water).
A reaction mixture consisted of 0.5 ml of Reagent B and 2 ml of Reagent C is pre-incubated for 5 min at 30° C., and 0.5 ml of Reagent A is added to it and kept for 30 min at 30° C. At the end of reaction, 5 ml of Reagent D is added with rapid mixing and kept for 10 min at 30° C., then the optical density at 490 nm is measured.
As the blank test, an incubation mixture containing 0.5 ml of Reagent B and 2 ml of Reagent C is kept at 30° C. for 30 min, after that 5 ml of Reagent D and 0.5 ml of Reagent A are added to it. Then the optical density is measured in the same way. […]

[12] = target: T1, β-lactamase of Citrobacter freundii GN 346 (Citrobacter freundii, UniProt P05193); assay: as above; type: biochemical; details: read-out: 50% Inhibitory Concentration (I50) (converted)
T1 construct: cefalotin substrate
T1 sequence (P05193 21-381): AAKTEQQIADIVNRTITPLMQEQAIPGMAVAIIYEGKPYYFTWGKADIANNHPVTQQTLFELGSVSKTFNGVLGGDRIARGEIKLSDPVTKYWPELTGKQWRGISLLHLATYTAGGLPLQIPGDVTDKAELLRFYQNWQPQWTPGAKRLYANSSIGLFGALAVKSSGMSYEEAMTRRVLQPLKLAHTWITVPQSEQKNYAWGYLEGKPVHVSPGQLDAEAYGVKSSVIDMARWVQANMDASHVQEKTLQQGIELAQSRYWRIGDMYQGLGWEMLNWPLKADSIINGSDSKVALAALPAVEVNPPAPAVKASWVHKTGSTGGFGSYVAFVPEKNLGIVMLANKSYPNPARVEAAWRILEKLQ

stability = type: physicochemical
From the text: Furthermore, it is difficult to isolate the SF-2103A substance in a free acid form because it is, as described above, very unstable in an acidic state. The SF-2103A substance is therefore obtained as a salt thereof in a pale yellow or white amorphous powder form by freeze-drying a neutral aqueous solution thereof. The purity of the SF-2103A substance obtained varies depending on the potency of the culture broth.

Escherichia coli GN206 = assay: mouse protection test, Experiment I; details: observed 7 days, groups of five
[13] = β-lactam alone on 8 mm disk (Ampicillin 10 μg, Carbenicillin 2 μg, Cefalotin 2 μg, Cefaloridine 5 μg), 37° C., 16 hours
[14] = SF-2103A alone, 1 μg per disk, listed as SF-2103A

In the case of `CC1(C)S[C@@H]2[C@H](NC(=O)C(C(=O)O)c3ccccc3)C(=O)N2[C@H]1C(=O)O` (stereo partly drawn) [Carbenicillin], the “Diameter of Inhibition Zone” value (Proteus vulgaris M-8243; [13]) is reported as 0 mm, the “Diameter of Inhibition Zone” value (Proteus rettgeri GN 624; [13]) is reported as 0 mm and the “Diameter of Inhibition Zone” value [1, 13] is reported as 0 mm.
In the case of `CC(OS(=O)(=O)O)C1C(=O)N2C(C(=O)O)=C(S(=O)(=O)O)CC12` (stereo not drawn) [SF-2103A substance sodium salt], the MIC [2] is reported as 25 µg/mL, the MIC [3] is reported as 25 µg/mL and the MIC [4] is reported as 50 µg/mL. The MIC (Escherichia coli No. 29) was 3.13 µg/mL, the MIC [5] was 12.5 µg/mL and the MIC [6] was 50 µg/mL. It also gave an MIC (Proteus mirabilis GN 310) of 50 µg/mL, an MIC [7] of 25 µg/mL and an MIC (Proteus morganii Kono) of 25 µg/mL. For the same compound, the MIC [8] was 3.13 µg/mL, the MIC [9] was 6.25 µg/mL and the MIC [10] was 50 µg/mL. For the same compound, the MIC [11] was over 100 µg/mL, the LD50 (toxicity (LD50); im, intramuscular injection) was over 2000 mg/kg and the LD50 (toxicity (LD50); intravenous injection) was over 2000 mg/kg. For the same compound, the LD50 (toxicity (LD50); oral administration) was over 2000 mg/kg, the Solubility (solubility; in benzene) was “insoluble” and the Solubility (solubility; in chloroform) was “insoluble”. For the same compound, the Solubility (solubility; in ethyl acetate) was “insoluble”, the Solubility (solubility; in methanol) was “soluble” and the Solubility (solubility; in water) was “Freely soluble”.
In the case of `CC1(C)S[C@@H]2[C@H](NC(=O)[C@H](N)c3ccccc3)C(=O)N2[C@H]1C(=O)O` [Ampicillin], the “Diameter of Inhibition Zone” value (Proteus vulgaris M-8243; [13]) is reported as 0 mm, the “Diameter of Inhibition Zone” value (Proteus rettgeri GN 624; [13]) is reported as 0 mm and the “Diameter of Inhibition Zone” value [1, 13] is reported as 0 mm.
In the case of `CC(OS(=O)(=O)O)C1C(=O)N2C(C(=O)O)=C(S(=O)(=O)O)CC12` (stereo not drawn) [SF-2103A substance], the “Inhibitory Ratio” value (Penicillinase) is reported as 34.4%, the IC50 [12] is reported as 504 nM and the stability (stability; acidic state (free acid form)) is reported as “very unstable”. For the same compound, the stability (stability; temperatures higher than room temperature, acidic or alkaline state) was “extremely unstable”, the “survival of infected mice” value (Escherichia coli GN206; 1 mg/mouse subcutaneously twice at one and two hours after intraperitoneal infection) was “four of the five mice survived” and the “survival of infected mice” value (Escherichia coli GN206; 2 mg/mouse subcutaneously once at one hour after intraperitoneal infection) was “two of the five mice survived”. For the same compound, the “Diameter of Inhibition Zone” value (Proteus vulgaris M-8243; SF-2103A alone, 1 μg per disk) was “does not show the inhibition zone”, the “Diameter of Inhibition Zone” value (Proteus vulgaris M-8243; [14]) was 0 mm and the “Diameter of Inhibition Zone” value (Proteus rettgeri GN 624; SF-2103A alone, 1 μg per disk) was “does not show the inhibition zone”. For the same compound, the “Diameter of Inhibition Zone” value (Proteus rettgeri GN 624; [14]) was 0 mm, the “Diameter of Inhibition Zone” value ([1]; SF-2103A alone, 1 μg per disk) was “does not show the inhibition zone” and the “Diameter of Inhibition Zone” value [1, 14] was 0 mm.
With `CC(=O)OCC1=C(C(=O)O)N2C(=O)[C@@H](NC(=O)Cc3cccs3)[C@H]2SC1` [Cefalotin] the “Diameter of Inhibition Zone” value (Proteus vulgaris M-8243; [13]) was 0 mm, the “Diameter of Inhibition Zone” value (Proteus rettgeri GN 624; [13]) was 0 mm and the “Diameter of Inhibition Zone” value [1, 13] was 0 mm.
In the case of `O=C(Cc1cccs1)N[C@@H]1C(=O)N2C(C(=O)[O-])=C(C[n+]3ccccc3)CS[C@H]12` [Cefaloridine], the “Diameter of Inhibition Zone” value (Proteus vulgaris M-8243; [13]) is reported as 0 mm, the “Diameter of Inhibition Zone” value (Proteus rettgeri GN 624; [13]) is reported as 0 mm and the “Diameter of Inhibition Zone” value [1, 13] is reported as 0 mm.
